Values of other authors, collected in patent US7312209B2, “Acridone inhibitors of IMPDH enzyme” (Bristol-Myers Squibb Company, priority 2001, dated 2007).

Experiments:
[1] = test system: antigen-specific T lymphocyte responses; conditions: in combination with Rol 10^−7 M
IL-2, IL-4, and IFN = conditions: RT-PCR; Rol 10^−7 M, MPA 10^−8 M
IMPDH types I and II = conditions: RT-PCR; low and high concentrations

| SMILES | synergistic effect on inhibition of antigen-induced proliferation [1] | downregulation in the generation of proinflammatory cytokines (IL-2, IL-4, IFN) (IL-2, IL-4, and IFN) | gene expression for IMPDH types I and II (IMPDH types I and II) |
| --- | --- | --- | --- |
| COc1c(C)c2c(c(O)c1C/C=C(\C)CCC(=O)O)C(=O)OC2 [MPA, mycophenolic acid] | marked synergistic effect | no significant downregulation | remained unaffected |
| COc1ccc(C2CNC(=O)C2)cc1OC1CCCC1 (stereo not drawn) [Rol, 4-[3-(cyclopentyloxy)-4-methoxy-phenyl]-2-pyrrolidinone] |  | no significant downregulation | remained unaffected |
| C=CC[C@@H]1/C=C(\C)C[C@H](C)C[C@H](OC)[C@H]2O[C@@](O)(C(=O)C(=O)N3CCCC[C@H]3C(=O)O[C@H](/C(C)=C/[C@@H]3CC[C@@H](O)[C@H](OC)C3)[C@H](C)[C@@H](O)CC1=O)[C@H](C)C[C@@H]2OC [tacrolimus] | little or no synergistic effect |  |  |
